The values that follow come from US7579365B2 (ZIOPHRAM Oncology, Inc., priority 1998, dated 2009).

Structures are written as SMILES. Values after ≈ are worked out from the molar mass of the structure shown. Where two headings read alike, the source gives them in different places. Where only a bound is given, the exact number is not on record here.

One experiment concerns L1210. Put plainly: L1210 leukemia model in vivo (% ILS, survival time). More on the design: species or system mouse. From the text:
In the hollow fiber assay, both compounds were almost equally strongly active, while on L 1210 D-24851 was markedly more strongly active after oral and intraperitoneal administration than D-24241.

Another experiment concerns L1210 cell line. Nature of the experiment: XTT proliferation test/cytotoxicity test, L1210 cell line. The settings on record: for EC50: Mus musculus. In kind it is cell-based, mouse. Here is the method:
(§1) In this test system, the effect of substances on the proliferation behavior of tumor cell lines is investigated. In the course of this, the cytotoxic potential of these substances is determined. The test method is described in Scudiero et al. 1988, Cancer Res. 48, 4827.
(§2) The following tumor cell lines were employed in the investigations:
(§3) The KB cell line an epidermal carcinoma of the oral cavity,
(§4) the L1210 cell line a lymphatic leukemia of the mouse, the LNCAP cell line a prostate carcinoma and the SK-OV-3 cell line an ovarian carcinoma.
A general note: Tetrazolium dyes change colour on reduction, which living cells bring about.

A further experiment deals with KB cell line. Nature of the experiment: XTT proliferation test/cytotoxicity test, KB cell line. The experiment is classed as cell-based. The settings on record: Homo sapiens, KB, read-out: XTT EC50 KB. Here is the method: as §1, §2, §3, §4
The test system of the next experiment is LNCAP cell line. Put plainly: XTT proliferation test/cytotoxicity test, LNCAP cell line. The experiment is classed as cell-based. The settings on record: Homo sapiens, read-out: XTT EC50 LNCaP. As to the method: as §1, §2, §3, §4
Another experiment relates to SK-OV-3 cell line. Put plainly: XTT proliferation test/cytotoxicity test, SK-OV-3 cell line. In kind it is cell-based. The settings on record: Homo sapiens. Here is the method:
as §1, §2, §3, §4

[1] abbreviates: L1210, L1210 tumor cells, read-out: XTT EC50 L1210.
Setting [2] is: SK-OV-3, SK-OV-3 tumor cells, read-out: XTT EC50 SK-OV-3.
Setting [3] is: L1210, read-out: XTT EC50 L1210.
[4] abbreviates: SK-OV-3, read-out: XTT EC50 SK-OV-3.

The term ILS denotes how much longer treated animals lived than controls. A low value points to little gain in survival. In the experiment with L1210 (Mus musculus, L1210, ip, 1 × 147 mg/kg i.p.), `O=c1[nH]cc(F)c(=O)[nH]1` [5-Fluorouracil, reference compound] had an ILS at 147 mg/kg of 72%. The ILS at 68.1 mg/kg in the experiment on L1210 (Mus musculus, L1210, ip, 4 × 68.1 mg/kg i.p.) was found to be 83%.

In the case of `N.N.[Cl][Pt][Cl]` [Cisplatin, reference compound], the “XTT EC50 L1210” value in the experiment on L1210 cell line (L1210 tumor cells) was “L1210 0.30 μg/ml”. Besides, the “% ILS L1210” value in the experiment on L1210 (1 × 3.16 mg/kg i.p.) was 38.9% ILS.

In general, EC50 refers to the concentration needed to bring the measured effect to its halfway point. Take `O=C(Nc1cccnc1)C(=O)c1cn(Cc2ccc(F)cc2)c2ccccc12` [Example 3, N-(Pyridin-3-yl)-[1-(4-fluorobenzyl)indol-3-yl]glyoxylamide]: the concentration giving a half-maximal response (EC50) with KB cell line (KB tumor cells) worked out at 1.75 µg/mL (≈ 4.69 µM); in the experiment on L1210 cell line (setting [1]), 1.75 µg/mL (≈ 4.69 µM); in the experiment with LNCAP cell line (LNCaP tumor cells), 9.25 µg/mL (≈ 24.8 µM); with SK-OV-3 cell line (setting [2]), 1.75 µg/mL (≈ 4.69 µM).

As for `O=C(Nc1cccnc1)C(=O)c1cn(Cc2ccccc2)c2ccccc12` [Example 4, N-(Pyridin-3-yl)-(1-benzylindol-3-yl)glyoxylamide], the EC50 with KB cell line was 17.5 µg/mL (≈ 49.2 µM); in the experiment on L1210 cell line (setting [3]) it was 1.75 µg/mL (≈ 4.92 µM); in the experiment with LNCAP cell line (LNCaP), more than 31.6 µg/mL; in the experiment with SK-OV-3 cell line (setting [4]) it was 9.2 µg/mL (≈ 25.9 µM).

Regarding `O=C(Nc1ccc(F)cc1)C(=O)c1cn(Cc2ccc(F)cc2)c2ccccc12` [Example 6, N-(4-Fluorophenyl)-[1-(4-fluorobenzyl)indol-3-yl]glyoxylamide], the EC50 in the experiment with KB cell line (KB tumor cells) is 3.1 µg/mL (≈ 7.94 µM); with L1210 cell line (setting [1]), 1.75 µg/mL (≈ 4.48 µM); with LNCAP cell line (LNCaP tumor cells), more than 31.6 µg/mL; with SK-OV-3 cell line (setting [2]), 17.5 µg/mL (≈ 44.8 µM).

In the case of `O=C(Nc1ccncc1)C(=O)c1cn(Cc2ccccc2)c2ccccc12` [Example 9, N-(Pyridin-4-yl)-(1-benzylindol-3-yl)glyoxylamide], the EC50 came out at 0.05 µg/mL (≈ 0.141 µM) in the experiment with KB cell line, 0.09 µg/mL (≈ 0.253 µM) in the experiment with L1210 cell line (setting [3]), 3.24 µg/mL (≈ 9.12 µM) in the experiment with LNCAP cell line (LNCaP) and 1.75 µg/mL (≈ 4.92 µM) in the experiment with SK-OV-3 cell line (setting [4]).

Consider `O=C(Nc1ccncc1)C(=O)c1cn(Cc2cccnc2)c2ccccc12` [Example 10, N-(Pyridin-4-yl)-[1-(3-pyridylmethyl)indol-3-yl]glyoxylamide], for which the EC50 is 4.06 µg/mL (≈ 11.4 µM) in the experiment on KB cell line (KB tumor cells), 1.75 µg/mL (≈ 4.91 µM) in the experiment with L1210 cell line (setting [1]), more than 31.6 µg/mL with LNCAP cell line (LNCaP tumor cells) and 7.22 µg/mL (≈ 20.3 µM) in the experiment on SK-OV-3 cell line (setting [2]).

`O=C(Nc1ccc(F)cc1)C(=O)c1cn(Cc2ccccn2)c2ccccc12` [Example 11, N-(4-Fluorophenyl)-[1-(2-pyridylmethyl)indol-3-yl]glyoxylamide]: the concentration for a half-maximal effect (EC50) in the experiment with KB cell line (KB tumor cells) stood at 4.59 µg/mL (≈ 12.3 µM); with L1210 cell line (setting [1]), 1.75 µg/mL (≈ 4.69 µM); with LNCAP cell line (LNCaP tumor cells), 17.5 µg/mL (≈ 46.9 µM); with SK-OV-3 cell line (setting [2]), 4.25 µg/mL (≈ 11.4 µM).

For `O=C(Nc1ccc(F)cc1)C(=O)c1cn(Cc2cccnc2)c2ccccc12` [Example 12, N-(4-Fluorophenyl)-[1(3-pyridylmethyl)indol-3-yl]glyoxylamide], the concentration giving a half-maximal response (EC50) in the experiment on KB cell line (KB tumor cells) is more than 31.6 µg/mL; in the experiment with L1210 cell line (setting [1]) it was 0.017 µg/mL (≈ 0.0455 µM); in the experiment with LNCAP cell line (LNCaP tumor cells) it was more than 31.6 µg/mL; in the experiment with SK-OV-3 cell line (setting [2]) it was more than 31.6 µg/mL.

As for `O=C(Nc1ccncc1)C(=O)c1cn(Cc2ccccc2Cl)c2ccccc12` [Example 14, N-(Pyridin-4-yl)-[1-(2-chlorobenzyl)indol-3-yl]glyoxylamide], the half-maximal effective concentration (EC50) is 1.75 µg/mL (≈ 4.49 µM) in the experiment on KB cell line (KB tumor cells), 1.75 µg/mL (≈ 4.49 µM) in the experiment on L1210 cell line (setting [1]), 17.5 µg/mL (≈ 44.9 µM) with LNCAP cell line (LNCaP tumor cells) and 2.58 µg/mL (≈ 6.62 µM) with SK-OV-3 cell line (setting [2]).

Take `O=C(Nc1ccccn1)C(=O)c1cn(Cc2ccc(F)cc2)c2ccccc12` [Example 15, N-(Pyridin-2-yl)-[1-(4-fluorobenzyl)indol-3-yl]glyoxylamide]: the EC50 was more than 31.6 µg/mL in the experiment on KB cell line, 3.1 µg/mL (≈ 8.3 µM) in the experiment with L1210 cell line (setting [3]), more than 31.6 µg/mL with LNCAP cell line (LNCaP) and more than 31.6 µg/mL in the experiment on SK-OV-3 cell line (setting [4]).

As to `O=C(Nc1ccncc1)C(=O)c1cn(Cc2ccccn2)c2ccccc12` [Example 16, N-(Pyridin-4-yl)-[1-(2-pyridylmethyl)indol-3-yl]glyoxylamide], the concentration giving a half-maximal response (EC50) with KB cell line (KB tumor cells) was determined as 4.59 µg/mL (≈ 12.9 µM); in the experiment on L1210 cell line (setting [1]), 1.75 µg/mL (≈ 4.91 µM); in the experiment with LNCAP cell line (LNCaP tumor cells), 17.5 µg/mL (≈ 49.1 µM); with SK-OV-3 cell line (setting [2]), 4.25 µg/mL (≈ 11.9 µM).

As to `CN(Cc1cnc2nc(N)nc(N)c2n1)c1ccc(C(=O)N[C@@H](CCC(=O)O)C(=O)O)cc1` [Methotrexate, reference compound], the EC50 in the experiment with KB cell line (KB tumor cells) is approximately 0.007 µg/mL (≈ 0.0154 µM); in the experiment on SK-OV-3 cell line (setting [2]), more than 31.6 µg/mL. The ILS at 53.7 mg/kg with L1210 (Mus musculus, L1210, ip, 1 × 53.7 mg/kg i.p.) amounted to 39%.
